≈ marks a conversion by molar mass, not a printed value. Read-outs that look alike come from different tables or passages of the source.
Assays:
[1] = system: Cryptococcus neoformans NI-7496; test: Minimum inhibitory concentration (MIC), agar dilution method on Sabouraud's agar medium, 30° C. for 48 hours; format: cell-based; conditions: read-out: Minimum inhibitory concentration (MIC), Cr.n.
Procedure: (§1) MIC of a test compound against Candida albicans ATCC-10259 was determined by the both dilution method employing synthetic amino acid medium (SAAMF medium). Namely, to 3 μl of twofold dilution series of solution containing the test compound was added 300 μl of SAAMF medium inoculated with the fungus at the final concentration of 1×10^3 cells/ml. […] MIC of a test compound against the fungus other than the Candida albicans was determined by the agar dilution method employing Sabouraud's agar medium. That is to say, a test compound was dissolved in dimethyl sulfoxide to give a solution containing the test compound in the concentration of 10 mg/ml. Further, thus obtained solution was diluted with dimethyl sulfoxide according to twofold dilution series and 0.1 ml of the diluted solution was taken into a sterile shale. After 9.9 ml of Sabouraud's agar medium was added thereto, the mixture was sufficiently mixed to give a drug-added plate. The plate was inoculated with 5 μl of a fungus suspension at 10^6 cells/ml by Microplanter (Sakuma Seisakusho Co., Ltd.). As to Aspergillus fumigatus NI-5561 and Cryptococcus neoformans NI-7496, a plate was incubated at 30° C. for 48 hours. As to Trichophyton mentagrophytes KD-01, a plate was incubated at 30° C. for 7 days. […] Clotrimazole and fluconazole were used as comparative control compounds.
Cryptococcus neoformans NI-7496

[2] = system: Trichophyton mentagrophytes KD-01; test: Minimum inhibitory concentration (MIC), agar dilution method on Sabouraud's agar medium, 30° C. for 7 days; format: cell-based; conditions: KD01, 168 h, read-out: Minimum inhibitory concentration (MIC), T.m.
Procedure: as §1, with “compounds. |Trichophyton mentagrophytes KD-01 | T. m.” for “compounds.”

[3] = system: Aspergillus fumigatus NI-5561; test: Minimum inhibitory concentration (MIC), agar dilution method on Sabouraud's agar medium, 30° C. for 48 hours; format: cell-based; conditions: read-out: Minimum inhibitory concentration (MIC), A.f.
Procedure: as §1
Aspergillus fumigatus NI-5561

[4] = system: Candida albicans ATCC-10259; test: Minimum inhibitory concentration (MIC), dilution method in SAAMF medium, 35° C. for 2 days; format: cell-based; conditions: ATCC10259, 48 h, read-out: Minimum inhibitory concentration (MIC), C.a.
Procedure: as §1
Candida albicans ATCC 10259

[5] = system: Candida albicans KC-36; test: Therapeutic effect on cutaneous candidiasis in guinea pigs; format: in vivo, male Hartley guinea pig; conditions: guinea pig, topical 1% solution, 0.2 ml once a day for 3 days from 2 days after infection
Procedure: Inhibitory ratio (%={1-(number of tissue specimens found fungi/total number
of tissue specimens)}×100
In the back of male Hartley guinea pig, weighing 400 to 500 g, a portion of skin was unhaired, to which […] of spore suspension of Candida albicans KC-36 (5×10^7 cells/ml) was dropped and the skin surface was infected by rubbing it with a glass rod. To facilitate the infection, prednisolone was subcutaneously administered at 30 mg/kg on one day before the infection, the day of infection and 4 days after the infection. […] The animal was killed by etherization 2 days after the last treatment and 10 tissue specimens of skin were cut out from the infected portion and incubated on CANDIDA GS AGAR `EIKEN` (EIKEN CHEMICAL CO., LTD. ) for 7 days. The inhibitory ratio was calculated according to the above-mentioned formula. Clotrimazole was employed as a control compound.

[6] = Acute toxicity test for mice; format: in vivo, male ICR mouse
Procedure: The compound of Example 1 was dissolved in polyethylene glycol 200 and the resultant solution was applied to a male ICR mouse of 5 weeks old by oral or subcutaneous administration.

[7] = system: Trichophyton mentagrophytes KD-04; test: Effect on trichophytosis in guinea pigs; format: in vivo, male Hartley guinea pig; conditions: guinea pig, topical 1% solution, 0.2 ml once a day for 10 days from 3 days after infection
Procedure: In the back of male Hartley guinea pig, weighing 400 to 500 g, a portion of skin was unhaired and rubbed lightly with sandpaper, to which 0.1 ml of microconidium suspension of Trichophyton mentagrophytes KD-04 (10^7 cells/ml) was dropped and the skin surface was infected by rubbing it with a glass rod. […] The animal was killed by etherization 2 days after the last treatment and 10 tissue specimens of skin were cut out from the infected portion and incubated on Sabouraud's agar medium for 7 days. Inhibitory ratio was calculated according to the following formula: […] of tissue specimens)}×100 The results are shown in Table 2. Clotrimazole was used as a control compound.

[8] = NI7496, Cryptococcus neoformans NI-7496, Sabouraud's agar, 30° C., 48 hours
[9] = NI5561, Aspergillus fumigatus NI-5561, Sabouraud's agar, 30° C., 48 hours
[10] = Candida albicans ATCC 10259, SAAMF medium, 35° C., 2 days
[11] = Cryptococcus neoformans, NI7496, 48 h
[12] = Aspergillus fumigatus, NI5561, 48 h

MIC [1, 8] | MIC [2] | MIC [3, 9] | MIC [4, 10] | SMILES | further results
0.2 µg/mL (≈ 0.577 µM) | 3.13 µg/mL (≈ 9.02 µM) | 6.25 µg/mL (≈ 18 µM) | < 0.0125 µg/mL | C=C1CCN([C@H](C)[C@](O)(Cn2cncn2)c2ccc(Cl)cc2)CC1 [Example 6, (2R,3R)-2-(4-chlorophenyl)-3-(4-methylenepiperidino)-1-(1H-1,2,4-triazol-1-yl)butan-2-ol] | –
0.05 µg/mL (≈ 0.131 µM) | 0.39 µg/mL (≈ 1.02 µM) | 0.39 µg/mL (≈ 1.02 µM) | 0.025 µg/mL (≈ 0.0656 µM) | C=C1CCN([C@H](C)[C@](O)(Cn2cncn2)c2ccc(Cl)cc2Cl)CC1 [Example 7, (2R,3R)-2-(2,4-dichlorophenyl)-3-(4-methylenepiperidino)-1-(1H-1,2,4-triazol-1-yl)butan-2-ol] | –
< 0.025 µg/mL | < 0.025 µg/mL | 0.05 µg/mL (≈ 0.144 µM) | < 0.025 µg/mL | C=C1CCN([C@H](C)[C@](O)(Cn2ccnc2)c2ccc(F)cc2F)CC1 [Example 4, (2R,3R)-2-(2,4-difluorophenyl)-3-(4-methylenepiperidino)-1-(1H-imidazol-1-yl)butan-2-ol] | –
0.1 µg/mL (≈ 0.267 µM) | 0.78 µg/mL (≈ 2.08 µM) | 0.2 µg/mL (≈ 0.534 µM) | < 0.025 µg/mL | C=CC=C1CCN([C@H](C)[C@](O)(Cn2cncn2)c2ccc(F)cc2F)CC1 [Example 12, (2R,3R)-2-(2,4-difluorophenyl)-3-(4-propenylidenepiperidino)-1-(1H-1,2,4-triazol-1-yl)butan-2-ol] | –
0.39 µg/mL (≈ 1.12 µM) | 1.56 µg/mL (≈ 4.48 µM) | 0.78 µg/mL (≈ 2.24 µM) | 0.1 µg/mL (≈ 0.287 µM) | C=C1CCCN([C@H](C)[C@](O)(Cn2cncn2)c2ccc(F)cc2F)C1 [Example 13, (2R,3R)-2-(2,4-difluorophenyl)-3-(3-methylenepiperidino)-1-(1H-1,2,4-triazol-1-yl)butan-2-ol] | –
0.025 µg/mL (≈ 0.072 µM) | 0.1 µg/mL (≈ 0.288 µM) | 0.05 µg/mL (≈ 0.144 µM) | < 0.025 µg/mL | C=C1CCN([C@H](C)[C@](O)(Cn2ccnc2)c2ccc(F)cc2F)CC1 (racemic) [Example 5, (2RS,3RS)-2-(2,4-difluorophenyl)-3-(4-methylenepiperidino)-1-(1H-imidazol-1-yl)butan-2-ol] | –
0.025 µg/mL (≈ 0.0589 µM) | 0.39 µg/mL (≈ 0.919 µM) | 0.1 µg/mL (≈ 0.236 µM) | < 0.025 µg/mL | C[C@@H](N1CCC(=Cc2ccccc2)CC1)[C@](O)(Cn1cncn1)c1ccc(F)cc1F (racemic) [Example 10, (2RS,3RS)-2-(2,4-difluorophenyl)-3-(4-benzylidenepiperidino)-1-(1H-1,2,4-triazol-1-yl)butan-2-ol] | –
0.78 µg/mL (≈ 2.24 µM) | 50 µg/mL (≈ 144 µM) | > 100 µg/mL | 0.39 µg/mL (≈ 1.12 µM) | C=C1CCN([C@@H](C)[C@@](O)(Cn2cncn2)c2ccc(F)cc2F)CC1 [Example 3, (2S,3S)-2-(2,4-difluorophenyl)-3-(4-methylenepiperidino)-1-(1H-1,2,4-triazol-1-yl)butan-2-ol] | –
0.39 µg/mL (≈ 1.17 µM) | 0.78 µg/mL (≈ 2.33 µM) | 0.39 µg/mL (≈ 1.17 µM) | < 0.025 µg/mL | C=C1CCN([C@H](C)[C@](O)(Cn2cncn2)c2ccc(F)cc2F)C1 [Example 14, (2R,3R)-2-(2,4-difluorophenyl)-3-(3-methylenepyrrolidino)-1-(1H-1,2,4-triazol-1-yl)butan-2-ol] | –
0.1 µg/mL (≈ 0.276 µM) | 0.78 µg/mL (≈ 2.15 µM) | 0.2 µg/mL (≈ 0.552 µM) | < 0.025 µg/mL | CC=C1CCN([C@H](C)[C@](O)(Cn2cncn2)c2ccc(F)cc2F)CC1 (racemic) [Example 8, (2RS,3RS)-2-(2,4-difluorophenyl)-3-(4-ethylidenepiperidino)-1-(1H-1,2,4-triazol-1-yl)butan-2-ol] | –

SMILES | MIC [1, 8] | MIC [2] | MIC [3, 9] | MIC [4, 10] | further results
C=C1CCN([C@H](C)[C@](O)(Cn2cncn2)c2ccc(F)cc2F)CC1 [Example 1, (2R,3R)-2-(2,4-difluorophenyl)-3-(4-methylenepiperidino)-1-(1H-1,2,4-triazol-1-yl)butan-2-ol] | 0.05 µg/mL (≈ 0.144 µM) | 0.39 µg/mL (≈ 1.12 µM) | 0.05 µg/mL (≈ 0.144 µM) | < 0.025 µg/mL | Inhibitory ratio [5]: 98%; Number of died mice/number of tested mice ([6]; oral, 500 mg/kg): 0/3; Number of died mice/number of tested mice ([6]; oral, 1000 mg/kg): 0/3; Number of died mice/number of tested mice ([6]; subcutaneous, 125 mg/kg): 0/3; Number of died mice/number of tested mice ([6]; subcutaneous, 250 mg/kg): 0/3; Number of died mice/number of tested mice ([6]; subcutaneous, 500 mg/kg): 0/3; Number of died mice/number of tested mice ([6]; subcutaneous, 1000 mg/kg): 0/3; Inhibitory ratio [7]: 98%
C=C1CCN([C@H](C)[C@](O)(Cn2cncn2)c2ccc(F)cc2F)CC1 (racemic) [Example 2, (2RS,3RS)-2-(2,4-difluorophenyl)-3-(4-methylenepiperidino)-1-(1H-1,2,4-triazol-1-yl)butan-2-ol] | 0.1 µg/mL (≈ 0.287 µM) | 0.39 µg/mL (≈ 1.12 µM) | 0.1 µg/mL (≈ 0.287 µM) | < 0.025 µg/mL | –
OC(Cn1cncn1)(Cn1cncn1)c1ccc(F)cc1F [Fluconazole, reference compound] | – | > 100 µg/mL | – | – | MIC [1, 11]: 12.5 µg/mL (≈ 40.8 µM); MIC [3, 12]: > 100 µg/mL; MIC ([4]; Candida albicans): 0.39 µg/mL (≈ 1.27 µM)
Clc1ccccc1C(c1ccccc1)(c1ccccc1)n1ccnc1 [Clotrimazole, reference compound] | – | 0.39 µg/mL (≈ 1.13 µM) | – | – | MIC [1, 11]: 0.2 µg/mL (≈ 0.58 µM); Inhibitory ratio [5]: 96%; Inhibitory ratio [7]: 20%; MIC [3, 12]: 0.78 µg/mL (≈ 2.26 µM); MIC ([4]; Candida albicans): 0.025 µg/mL (≈ 0.0725 µM)
